In patent US11413348B2, “Low molecular weight cationic lipids for oligonucleotide delivery” (SIRNA THERAPEUTICS, INC., priority 2010, dated 2022):

Experiment: Rat in vivo evaluation of toxicity (serum ALT and AST)
Details: ApoB siRNA RDV, tail vein, 24 hours after dosing, FIG. 2
Experimental: Six hours post dose, food is removed from the cages. Animal necropsy is performed 24 hours after LNP dosing. Rats are anesthetized under isoflurane for 5 minutes, then maintained under anesthesia by placing them in nose cones continuing the delivery of isoflurane until ex-sanguination is completed. Blood is collected from the vena cava using a 23 gauge butterfly venipuncture set and aliquoted to serum separator vacutainers for serum chemistry analysis. Punches of the excised caudate liver lobe are taken and placed in RNALater (Ambion) for mRNA analysis. Preserved liver tissue was homogenized and total RNA isolated using a Qiagen bead mill and the Qiagen miRNA-Easy RNA isolation kit following the manufacturer's instructions. Liver ApoB mRNA levels were determined by quantitative RT-PCR. Message was amplified from purified RNA utilizing a rat ApoB commercial probe set (Applied Biosystems Cat #RN01499054_m1). The PCR reaction was performed on an ABI 7500 instrument with a 96-well Fast Block. The ApoB mRNA level is normalized to the housekeeping PPIB (NM 011149) mRNA. PPIB mRNA levels were determined by RT-PCR using a commercial probe set (Applied Biosytems Cat. No. Mm00478295_m1). Results are expressed as a ratio of ApoB mRNA/PPIB mRNA. All mRNA data is expressed relative to the PBS control dose. […]

CCCCC/C=C\C/C=C\CCCCCCCCCC(CCCCCCCCC)CCN(C)C (centres unmarked) [Compound 32, (13Z,16Z)—N,N-dimethyl-3-nonyldocosa-13,16-dien-1-amine]
tolerability (serum ALT and AST) compared with RDV containing DLinKC2DMA (Compound 45) or MC3 (Compound 46): improved tolerability

CCCCCCCCCC(CCCCCCCC1CC1CCCCCCCC)N(C)C [Compound 33, N,N-dimethyl-1-[(1S,2R)-2-octylcyclopropyl]hepladecan-8-amine]
tolerability (serum ALT and AST) compared with RDV containing DLinKC2DMA (Compound 45) or MC3 (Compound 46): improved tolerability
